In ChEMBL document CHEMBL1201862, “PubChem BioAssay data set” (2004):
Active and inactive are the calls of the source.

Assays:
[1] = cells; format: functional, cell-based; settings: HEK-CNG
[2] = HepG2 cell cytotoxicity, dose response, cytotoxicity control for Shn3 inhibitor project, CellTiter-Glo, cherry-picked (AID 624134); format: functional, cell-based
[3] = Shn3 3'UTR reporter inhibitors, dose response, cell-based, Clone20 osteoblasts, firefly luciferase, cherry-picked (AID 624132); format: functional;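 further: firefly luciferase luminescence from reporter carrying the Shn3 3'UTR in osteoblasts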
[4] = target: T1, Galanin receptor type 3 (Homo sapiens, UniProt O60755); test: Fluorescence-based cell-based primary high throughput dose response assay to identify antagonists of the Galanin Receptor 3 (GalR3).; format: functional
T1 sequence (O60755 whole entry): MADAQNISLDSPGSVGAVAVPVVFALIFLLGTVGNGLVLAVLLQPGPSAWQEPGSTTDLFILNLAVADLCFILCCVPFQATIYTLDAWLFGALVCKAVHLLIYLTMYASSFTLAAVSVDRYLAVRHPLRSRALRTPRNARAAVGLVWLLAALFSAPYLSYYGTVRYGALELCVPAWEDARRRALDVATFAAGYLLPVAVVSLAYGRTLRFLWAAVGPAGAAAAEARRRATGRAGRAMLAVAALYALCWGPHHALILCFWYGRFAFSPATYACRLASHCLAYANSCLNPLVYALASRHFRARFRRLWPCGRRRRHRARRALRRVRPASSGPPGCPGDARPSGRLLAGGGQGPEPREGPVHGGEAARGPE

[5] = control 3'UTR Renilla luciferase suppression, dose response, counter-screen for Shn3 inhibitor project, cell-based, Clone20-Shn3RL, cherry-picked (AID 624133); format: functional
[6] = target: COUP transcription factor 2 (Homo sapiens, UniProt P24468); test: Luminescence-based cell-based high throughput dose response assay to identify inhibitors of COUP-TFII (NR2F2).; format: functional;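 further: HEK293 cells transiently cotransfected with COUP-TFII expression vector and reporter; luciferase reporter luminescence driven by COUP-TFII from the pX2-168 reporter plasmid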
COUP transcription factor 2, sequence (P24468 whole entry): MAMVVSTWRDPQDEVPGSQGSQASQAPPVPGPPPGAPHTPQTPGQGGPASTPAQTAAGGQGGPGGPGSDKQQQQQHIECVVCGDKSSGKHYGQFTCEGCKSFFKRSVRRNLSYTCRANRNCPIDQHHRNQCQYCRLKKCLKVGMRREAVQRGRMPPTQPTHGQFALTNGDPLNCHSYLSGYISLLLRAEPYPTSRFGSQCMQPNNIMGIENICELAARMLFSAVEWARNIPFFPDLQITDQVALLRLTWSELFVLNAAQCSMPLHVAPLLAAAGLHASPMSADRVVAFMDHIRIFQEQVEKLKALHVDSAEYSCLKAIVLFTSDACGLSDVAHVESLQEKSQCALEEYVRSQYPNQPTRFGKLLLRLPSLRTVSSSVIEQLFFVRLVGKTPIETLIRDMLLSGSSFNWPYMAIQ

[7] = target: 1-phosphatidylinositol 4,5-bisphosphate phosphodiesterase gamma-1 (Homo sapiens, UniProt P19174); test: Counterscreen for inhibitors of phospholipase C isozymes (PLC-B3): Fluorescence-based biochemical high throughput dose response assay to identify inhibitors of phospholipase C isozymes (PLC-gamma1).
1-phosphatidylinositol 4,5-bisphosphate phosphodiesterase gamma-1, sequence (P19174 whole entry): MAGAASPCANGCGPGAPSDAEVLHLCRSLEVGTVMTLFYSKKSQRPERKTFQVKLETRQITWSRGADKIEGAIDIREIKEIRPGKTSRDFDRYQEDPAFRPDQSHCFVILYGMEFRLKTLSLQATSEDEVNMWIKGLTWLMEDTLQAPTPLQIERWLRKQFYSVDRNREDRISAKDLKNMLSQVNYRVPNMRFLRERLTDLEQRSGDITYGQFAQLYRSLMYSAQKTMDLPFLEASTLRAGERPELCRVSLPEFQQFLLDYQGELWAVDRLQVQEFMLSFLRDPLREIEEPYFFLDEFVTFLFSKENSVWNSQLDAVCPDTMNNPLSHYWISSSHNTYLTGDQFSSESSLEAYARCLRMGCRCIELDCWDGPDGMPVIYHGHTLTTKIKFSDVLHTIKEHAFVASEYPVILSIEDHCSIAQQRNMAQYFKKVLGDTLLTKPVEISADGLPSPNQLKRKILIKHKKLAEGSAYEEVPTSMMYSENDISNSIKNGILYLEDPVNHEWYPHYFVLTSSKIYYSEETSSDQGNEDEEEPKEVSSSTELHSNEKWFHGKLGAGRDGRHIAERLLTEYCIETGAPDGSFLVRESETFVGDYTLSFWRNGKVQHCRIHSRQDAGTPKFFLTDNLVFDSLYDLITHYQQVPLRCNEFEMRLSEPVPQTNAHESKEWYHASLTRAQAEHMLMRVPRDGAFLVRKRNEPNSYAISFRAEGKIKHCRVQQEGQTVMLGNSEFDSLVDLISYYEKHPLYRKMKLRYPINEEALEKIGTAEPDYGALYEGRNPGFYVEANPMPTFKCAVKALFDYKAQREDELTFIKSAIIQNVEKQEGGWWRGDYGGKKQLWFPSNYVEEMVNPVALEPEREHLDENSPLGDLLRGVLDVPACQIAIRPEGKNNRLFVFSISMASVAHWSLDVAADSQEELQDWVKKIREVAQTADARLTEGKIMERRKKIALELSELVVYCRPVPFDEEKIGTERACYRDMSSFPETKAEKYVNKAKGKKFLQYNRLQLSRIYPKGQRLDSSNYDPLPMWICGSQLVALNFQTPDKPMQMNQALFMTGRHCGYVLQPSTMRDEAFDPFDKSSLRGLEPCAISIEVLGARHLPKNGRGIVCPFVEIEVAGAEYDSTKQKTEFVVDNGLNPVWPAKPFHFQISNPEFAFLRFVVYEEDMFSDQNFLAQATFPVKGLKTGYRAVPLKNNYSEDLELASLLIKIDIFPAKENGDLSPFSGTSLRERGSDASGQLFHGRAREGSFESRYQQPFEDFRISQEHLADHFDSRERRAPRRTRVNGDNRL

[8] = target: 1-phosphatidylinositol 4,5-bisphosphate phosphodiesterase beta-3 (Homo sapiens, UniProt Q01970); test: Fluorescence-based biochemical high throughput dose response assay to identify inhibitors of phospholipase C isozymes (PLC-B3).
1-phosphatidylinositol 4,5-bisphosphate phosphodiesterase beta-3, sequence (Q01970 whole entry): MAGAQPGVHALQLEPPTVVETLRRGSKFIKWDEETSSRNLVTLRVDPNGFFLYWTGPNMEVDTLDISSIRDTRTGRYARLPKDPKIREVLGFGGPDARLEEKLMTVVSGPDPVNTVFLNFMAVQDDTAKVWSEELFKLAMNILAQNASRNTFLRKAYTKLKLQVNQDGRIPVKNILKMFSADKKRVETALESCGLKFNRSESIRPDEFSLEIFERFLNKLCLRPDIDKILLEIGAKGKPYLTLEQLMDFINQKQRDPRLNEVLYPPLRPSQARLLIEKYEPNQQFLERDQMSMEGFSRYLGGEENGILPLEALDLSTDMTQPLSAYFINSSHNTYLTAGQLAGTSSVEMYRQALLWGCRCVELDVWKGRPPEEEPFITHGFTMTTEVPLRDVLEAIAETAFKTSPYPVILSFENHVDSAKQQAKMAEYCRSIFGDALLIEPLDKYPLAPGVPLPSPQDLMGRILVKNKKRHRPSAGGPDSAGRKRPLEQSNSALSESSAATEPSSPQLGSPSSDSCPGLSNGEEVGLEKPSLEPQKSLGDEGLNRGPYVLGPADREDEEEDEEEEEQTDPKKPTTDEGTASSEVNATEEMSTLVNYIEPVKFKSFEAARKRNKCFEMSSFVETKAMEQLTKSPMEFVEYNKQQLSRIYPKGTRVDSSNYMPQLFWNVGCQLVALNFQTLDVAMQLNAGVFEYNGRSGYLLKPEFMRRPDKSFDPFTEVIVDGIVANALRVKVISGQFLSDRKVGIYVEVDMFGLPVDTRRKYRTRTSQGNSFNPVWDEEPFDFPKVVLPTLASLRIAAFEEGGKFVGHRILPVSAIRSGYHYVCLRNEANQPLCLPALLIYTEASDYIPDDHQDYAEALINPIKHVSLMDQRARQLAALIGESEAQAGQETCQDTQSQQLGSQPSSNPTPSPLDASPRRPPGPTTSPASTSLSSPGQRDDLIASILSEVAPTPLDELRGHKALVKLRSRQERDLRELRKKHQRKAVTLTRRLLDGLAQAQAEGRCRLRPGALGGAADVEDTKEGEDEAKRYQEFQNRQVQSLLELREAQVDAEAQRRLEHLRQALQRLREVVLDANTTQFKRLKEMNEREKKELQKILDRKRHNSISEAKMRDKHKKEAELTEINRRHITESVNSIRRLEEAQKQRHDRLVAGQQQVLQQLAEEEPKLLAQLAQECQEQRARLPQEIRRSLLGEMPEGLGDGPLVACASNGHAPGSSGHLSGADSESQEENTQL

[9] = HepG2 cell cytotoxicity, dose response, cytotoxicity control, ATP luminescence, cherry-pick, activator set 2 (AID 1053143); format: functional, cell-based
[10] = MC4R antagonists, dose response, counter-screen for LGR2 antagonist project, cell-based, plate reader, cherry pick (AID 743444); format: functional;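 further: transfected HEK 293 cells stimulated with alpha-MSH peptide; potency of inhibitors of the alpha-MSH evoked signal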
[11] = HEK293 cell cytotoxicity, dose response, cytotoxicity control, plate reader, cherry-picked samples (AID 743446); format: functional, cell-based
[12] = A549 cell cytotoxicity, dose response, cytotoxicity control, plate reader, cherry-pick, antagonist series (AID 743412); format: functional, cell-based
[13] = LGR2 antagonists, dose response, cell-based, HEK293, CRE-luciferase reporter, cherry pick, set 2 (AID 743343); format: functional;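 further: transfected cells were stimulated with diluted bursicon conditioned medium after compound addition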
[14] = HepG2 cell cytotoxicity, dose response, cytotoxicity control, plate reader, cherry-pick, antagonist series (AID 743416); format: functional, cell-based
[15] = Luminescence Cell-Based Dose Response to Identify Activators of 5'UTR Stem-Loop Driven Prion Protein mRNA Translation in H4-C Neuroglioblastoma Cells. [Related pubchem assays: 1829 (Project Summary), 1814 (Primary HTS)]; format: functional
[16] = target: T2, Oxysterols receptor LXR-beta (Homo sapiens, UniProt P55055); format: functional, cell-based;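 further: agonist activity at LXR measured by a cell-based luminescence readout across a dose range, run as a counterscreen for daf-12 agonists; HEK293 cells with Gal4-LXR fusion and GAL4-driven luciferase reporter; potency for activation of Gal4-LXR reporter so compounds are agonists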
T2 sequence (P55055 whole entry): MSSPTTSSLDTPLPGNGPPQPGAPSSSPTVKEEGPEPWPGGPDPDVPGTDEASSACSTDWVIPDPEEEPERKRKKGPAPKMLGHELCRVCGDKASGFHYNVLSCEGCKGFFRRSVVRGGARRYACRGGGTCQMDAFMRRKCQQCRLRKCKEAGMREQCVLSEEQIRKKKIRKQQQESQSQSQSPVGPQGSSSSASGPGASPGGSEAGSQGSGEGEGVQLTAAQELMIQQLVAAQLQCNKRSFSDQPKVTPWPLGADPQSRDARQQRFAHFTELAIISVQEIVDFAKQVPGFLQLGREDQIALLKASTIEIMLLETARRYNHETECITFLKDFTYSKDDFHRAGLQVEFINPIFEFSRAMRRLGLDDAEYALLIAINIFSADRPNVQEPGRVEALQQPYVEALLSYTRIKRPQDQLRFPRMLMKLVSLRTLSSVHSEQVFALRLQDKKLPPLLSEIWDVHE

[17] = Luminescence Cell-Based Dose Response HTS to Identify Activators of Luciferase Translation or Activity in H4 […] Cells. [Related pubchem assays: 1829 (Project Summary), 1814 (Primary HTS)]; format: functional
[18] = target: T3, Sentrin-specific protease 7 (Homo sapiens, UniProt Q9BQF6); format: functional;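 further: Luminescence-based dose-response confirmation of ultra-high-throughput screening hits, measuring inhibition of SENP7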
T3 sequence (Q9BQF6 whole entry): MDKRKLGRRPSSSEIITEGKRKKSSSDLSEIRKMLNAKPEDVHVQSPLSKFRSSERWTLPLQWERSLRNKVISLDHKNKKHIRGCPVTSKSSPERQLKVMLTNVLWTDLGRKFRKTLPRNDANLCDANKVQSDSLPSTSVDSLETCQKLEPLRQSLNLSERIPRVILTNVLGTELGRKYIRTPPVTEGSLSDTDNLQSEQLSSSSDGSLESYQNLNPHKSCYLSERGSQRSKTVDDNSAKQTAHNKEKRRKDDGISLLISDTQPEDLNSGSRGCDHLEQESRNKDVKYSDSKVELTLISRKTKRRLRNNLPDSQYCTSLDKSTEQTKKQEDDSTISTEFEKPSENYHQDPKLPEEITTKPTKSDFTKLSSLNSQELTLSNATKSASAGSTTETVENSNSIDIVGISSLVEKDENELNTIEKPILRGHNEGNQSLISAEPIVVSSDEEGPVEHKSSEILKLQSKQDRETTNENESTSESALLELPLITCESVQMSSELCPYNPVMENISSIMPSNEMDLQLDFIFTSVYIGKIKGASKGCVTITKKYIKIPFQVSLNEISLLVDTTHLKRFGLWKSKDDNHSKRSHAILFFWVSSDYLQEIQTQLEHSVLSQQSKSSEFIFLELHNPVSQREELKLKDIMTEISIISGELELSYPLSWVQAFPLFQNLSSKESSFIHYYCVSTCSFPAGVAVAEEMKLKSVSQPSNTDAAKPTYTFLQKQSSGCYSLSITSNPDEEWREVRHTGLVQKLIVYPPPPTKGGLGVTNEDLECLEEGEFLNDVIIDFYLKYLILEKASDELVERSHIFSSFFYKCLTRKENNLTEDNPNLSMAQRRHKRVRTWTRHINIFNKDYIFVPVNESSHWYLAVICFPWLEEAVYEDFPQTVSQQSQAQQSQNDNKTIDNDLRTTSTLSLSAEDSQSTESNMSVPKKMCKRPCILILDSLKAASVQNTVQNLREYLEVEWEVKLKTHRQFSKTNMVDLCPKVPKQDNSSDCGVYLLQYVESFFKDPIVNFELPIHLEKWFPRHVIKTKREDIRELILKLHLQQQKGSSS

[19] = test system: H4; test: Luminescence Cell-Based Dose Response HTS to Identify Activators of 5'UTR Stem-Loop Driven Prion Protein mRNA Translation in H4 Neuroglioblastoma Cells. [Related pubchem assays: 1829 (Project Summary), 1814 (Primary HTS)]; format: functional; settings: Homo sapiens
[20] = Luminescence Cell-Based Dose Confirmation to Identify Activators of 5'UTR Stem-Loop Driven Alpha-Synuclein mRNA Translation in H4 Neuroglioblastoma Cells. [Related pubchem assays: 1829 (Project Summary), 1814 (Primary HTS)]; format: functional
[21] = target: T4, Caspase-3 (Homo sapiens, UniProt P42574); format: functional;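 further: Dose-response selectivity test against caspase-3 for candidate inhibitors of sentrin-specific proteases (SENPs)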
T4 sequence (P42574 whole entry): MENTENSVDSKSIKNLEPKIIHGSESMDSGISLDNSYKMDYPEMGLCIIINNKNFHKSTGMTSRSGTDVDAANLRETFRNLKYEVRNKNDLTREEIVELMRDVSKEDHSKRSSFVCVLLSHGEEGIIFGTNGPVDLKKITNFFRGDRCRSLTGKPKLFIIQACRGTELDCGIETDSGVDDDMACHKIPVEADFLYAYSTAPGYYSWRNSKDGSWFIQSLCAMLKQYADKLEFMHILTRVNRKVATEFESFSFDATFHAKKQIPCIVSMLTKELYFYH

[22] = Luminescence Cell-Based Dose Response to Identify Activators of Luciferase Translation or Activity in H4-C Neuroglioblastoma Cells. [Related pubchem assays: 1829 (Project Summary), 1814 (Primary HTS)]; format: functional
[23] = target: T5, Sentrin-specific protease 8 (Homo sapiens, UniProt Q96LD8); format: functional;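 further: luminescence read-out of SENP8 inhibition, dose-response confirmation following an ultra-high-throughput screen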
T5 sequence (Q96LD8 whole entry): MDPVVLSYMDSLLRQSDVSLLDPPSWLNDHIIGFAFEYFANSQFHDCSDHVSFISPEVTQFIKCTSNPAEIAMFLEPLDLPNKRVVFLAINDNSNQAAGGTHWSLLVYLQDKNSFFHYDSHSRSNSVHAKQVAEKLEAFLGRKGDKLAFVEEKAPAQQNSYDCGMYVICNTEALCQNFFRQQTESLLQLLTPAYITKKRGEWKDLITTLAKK

[24] = target: T6, Sentrin-specific protease 6 (Homo sapiens, UniProt Q9GZR1); format: functional;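 further: Luminescence-based dose-response confirmatory assay of SENP6 inhibition, following up an ultra-high-throughput screen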
T6 sequence (Q9GZR1 whole entry): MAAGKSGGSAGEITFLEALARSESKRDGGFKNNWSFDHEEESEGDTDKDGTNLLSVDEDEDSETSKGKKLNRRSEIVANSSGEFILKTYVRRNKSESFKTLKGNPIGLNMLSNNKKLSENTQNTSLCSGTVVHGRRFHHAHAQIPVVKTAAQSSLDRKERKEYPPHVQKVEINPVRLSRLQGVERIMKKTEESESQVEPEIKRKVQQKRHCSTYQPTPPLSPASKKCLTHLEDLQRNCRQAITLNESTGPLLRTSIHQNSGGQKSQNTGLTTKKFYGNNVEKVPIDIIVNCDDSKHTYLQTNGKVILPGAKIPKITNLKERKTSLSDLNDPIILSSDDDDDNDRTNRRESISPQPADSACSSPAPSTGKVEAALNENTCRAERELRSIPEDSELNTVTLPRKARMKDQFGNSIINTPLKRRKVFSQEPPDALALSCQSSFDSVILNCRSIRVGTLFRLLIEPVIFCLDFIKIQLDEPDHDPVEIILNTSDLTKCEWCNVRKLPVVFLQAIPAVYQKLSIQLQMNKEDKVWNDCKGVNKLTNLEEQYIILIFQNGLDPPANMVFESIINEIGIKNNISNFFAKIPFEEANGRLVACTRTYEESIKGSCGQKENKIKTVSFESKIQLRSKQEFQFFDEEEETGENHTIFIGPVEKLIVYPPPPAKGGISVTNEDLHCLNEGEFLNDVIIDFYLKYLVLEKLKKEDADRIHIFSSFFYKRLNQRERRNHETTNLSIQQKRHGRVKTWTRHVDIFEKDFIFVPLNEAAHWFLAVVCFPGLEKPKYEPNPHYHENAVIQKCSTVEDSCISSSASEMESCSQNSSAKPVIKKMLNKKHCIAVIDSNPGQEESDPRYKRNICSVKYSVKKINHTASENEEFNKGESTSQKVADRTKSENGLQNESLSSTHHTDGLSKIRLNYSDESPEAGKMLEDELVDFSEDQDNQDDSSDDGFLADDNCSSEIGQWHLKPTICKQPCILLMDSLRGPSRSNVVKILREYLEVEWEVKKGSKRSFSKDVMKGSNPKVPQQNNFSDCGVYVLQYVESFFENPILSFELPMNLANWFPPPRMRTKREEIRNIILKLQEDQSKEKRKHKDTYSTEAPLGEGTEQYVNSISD

[25] = target: Paired box protein Pax-8 (Homo sapiens, UniProt Q06710); test: inhibitors of PAX8-driven TPO luciferase reporter, dose response, RMG-I cells, cherry-pick (AID 687027); format: functional, cell-based;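 further: luciferase reporter driven by Pax8 target thyroperoxidase promoter measured by SteadyGlo luminescence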
Paired box protein Pax-8, sequence (Q06710 whole entry): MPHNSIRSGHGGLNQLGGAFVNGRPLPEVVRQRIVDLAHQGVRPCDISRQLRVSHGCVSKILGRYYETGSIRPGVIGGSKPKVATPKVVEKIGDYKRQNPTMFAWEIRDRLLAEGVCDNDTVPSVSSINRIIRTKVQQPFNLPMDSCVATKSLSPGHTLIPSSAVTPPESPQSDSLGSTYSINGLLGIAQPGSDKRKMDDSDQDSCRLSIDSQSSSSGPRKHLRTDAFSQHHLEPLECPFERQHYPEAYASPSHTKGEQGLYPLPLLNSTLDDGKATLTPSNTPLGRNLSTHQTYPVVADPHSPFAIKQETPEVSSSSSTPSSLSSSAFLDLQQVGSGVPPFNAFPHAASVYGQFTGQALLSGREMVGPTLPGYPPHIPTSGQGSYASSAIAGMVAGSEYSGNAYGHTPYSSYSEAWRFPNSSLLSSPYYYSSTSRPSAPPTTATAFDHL

[26] = IGROV1 ovarian cancer cell cytotoxicity, dose response, PAX8 inhibitor project, plate reader, dry powder samples (AID 743043); format: functional, cell-based; settings: IGROV-1
[27] = cytotoxicity in OVCAR8 ovarian cancer cells, dose response, PAX8 project, cell-based, plate reader, dry powder samples (AID 743197); format: functional; settings: OVCAR-8
[28] = target: Nonstructural protein 1 (Influenza A virus, UniProt Q194T2); format: functional, Influenza A virus (A/California/07/2009(H1N1))
Nonstructural protein 1, sequence (Q194T2 whole entry): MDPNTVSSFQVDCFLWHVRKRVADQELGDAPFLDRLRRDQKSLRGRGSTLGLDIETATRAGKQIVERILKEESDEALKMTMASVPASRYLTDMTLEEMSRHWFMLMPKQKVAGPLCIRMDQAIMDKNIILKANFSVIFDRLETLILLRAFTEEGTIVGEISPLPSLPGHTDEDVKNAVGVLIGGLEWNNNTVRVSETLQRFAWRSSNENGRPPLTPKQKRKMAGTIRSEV

Fc1ccc(N=C(S)N2CCCN(c3ccc(C(F)(F)F)cn3)CC2)c(F)c1
EC50 [1]: > 29.9 µM (inactive) | AC50 [2]: 1.09 µM (active) | AC50 [3]: 3.71 µM (active) | IC50 [4]: 142 nM (active) | AC50 [5]: 27 µM (active) | IC50 [6]: 3.07 µM (active)

COCCNCCCOc1ccc(Br)cc1Cl
IC50 [7]: > 123 µM (inactive) | IC50 [8]: > 123 µM (inactive)

c1csc(-c2nc(CN3CCSCC3)cs2)c1
AC50 [9]: 26 µM (active) | AC50 [10]: 14.8 µM (active) | AC50 [11]: > 52 µM (inactive) | AC50 [12]: > 52 µM (inactive) | AC50 [13]: 18.8 µM (active) | AC50 [14]: > 52 µM (inactive)

Cc1ccc(S(=O)(=O)NC(=NC(S)=Nc2ccccc2)c2ccccc2)cc1
EC50 [15]: 308 nM (active) | EC50 [16]: > 67.5 µM (inactive) | EC50 [17]: < 100 nM (inconclusive) | IC50 [18]: 4.8 µM (active) | EC50 [19]: < 100 nM (active) | EC50 [20]: 786 nM (active) | IC50 [21]: 20.4 µM (active) | EC50 [22]: 2.54 µM (active) | IC50 [23]: 22.5 µM (active) | IC50 [24]: 14.1 µM (active)

C[C@@H]1CN([C@@H](C)CO)C(=O)c2cc(NC(=O)Cc3ccccc3)ccc2O[C@@H](C)CCCCO[C@H]1CN(C)Cc1ccc(C(F)(F)F)cc1
AC50 [25]: 9.1 µM (active) | AC50 [26]: 44.6 µM (active) | AC50 [27]: > 70 µM (inactive)

C[C@H]1CCCCO[C@H](CN(C)C(=O)NC2CCCCC2)[C@@H](C)CN([C@@H](C)CO)C(=O)c2cc(NC(=O)Nc3ccc(C(F)(F)F)cc3)ccc2O1
AC50 [25]: 8.03 µM (active) | AC50 [26]: 47.5 µM (active) | AC50 [27]: 67.2 µM (active)

Cc1ccc(S(=O)(=O)NC2=C(N3CCN(c4ccccc4F)CC3)C(=O)c3ccccc3C2=O)cc1
IC50 [7]: > 122 µM (inactive) | IC50 [8]: > 122 µM (inactive) | IC50 [28]: 32.5 µM (active)
